Measurements from patent publication US5447944A, “Carbamoyl-2-pyrrolidinone compounds” (Taiho Pharmaceutical Company, Limited, priority 1988, dated 1995).
Read-outs that look alike come from different tables or passages of the source.

Legend:
[1] = Reversal activity of amnesia (Test Example 1): scopolamine-induced amnesia, step-through passive avoidance, antiamnesia effect; format: in vivo, rats (Wistar, males); details: read-out: Antiamnesia effect [increase ratio (%) of the step-through latency]; for change in vivo at 10 mg/kg: 10 mg/kg oral
Method: Reversal activity of amnesia
Groups of 6 to 16 rats (Wistar, males, weighing 170 to 240 g) were used for the experiment.
Scopolamine was used as dissolved in physiological saline, and the test compound as dissolved or suspended in 0.5% solution of sodium carboxymethyl cellulose.
Scopolamine was subcutaneously given at a dose of 0.5 mg/kg 30 minutes before aquisition trials. The test compound was orally given immediately after the aquisition trials.
The rat was subjected to habituation trials about 1 hour before aquisition trials. The habituation was accomplished by placing the rat into the light compartment, opening the door 5 seconds thereafter, closing the door when the four legs completely entered the dark compartment, leaving the rat in the dark compartment for 10 seconds and thereafter taking out the rat. The acquisition trial was accomplished in the same manner as the habituation 1 hour thereafter except that simultaneously when the door was closed upon the movement of the rat into the dark compartment, an unescapable foot shock of 4.5 mA was given to the rat by the floor grit for 1 second.
A retention test was conducted 24 hours after the aquisition trials to measure the step-through latency during which the rat placed into the light compartment remained therein before moving into the dark compartment, i.e., the duration of a passive avoidance reaction.

[2] = Antianoxic activity test (Test Example 2): effect on the survival time under low-oxygen load at atmospheric pressure; format: in vivo, mice (ddY, five-week-old males); details: read-out: Antianoxia activity [increase ratio (%) of the survival time]
Description: Antianoxic activity test (effect on the survival time under low-oxygen load at atmospheric pressure)
Groups of 10 mice (ddY, five-week-old males) were used for the experiment with reference to Japan Journal of Pharmacology, 81, 421~429 (1983), same, 86, 323~328 (1985) and same, 89, 355~363 (1987). The test compound was orally given to the mouse as dissolved or suspended in 0.5% solution of sodium carboxymethyl cellulose, the mouse was placed into a transparent plastics container (13×13×16 cm) having a vent, and a gas mixture of 96% nitrogen and 4% oxygen was passed through the container at a rate of 5 liters/min.

[3] = Acute toxicity test (Test Example 3); details: mouse, in vivo
Method: Mice (ddY, five-week-old males) were used in groups of 4 to 5 mice each. The test compound was dissolved or suspended in 0.5% solution of sodium carboxymethyl cellulose and administered orally. […] Many of the test compounds produced symptoms of sedation or mascular relaxation for 30 minutes to 6 hours, followed by gradual recovery. The original state was restored two days later.

[4] = rat, retention test 24 hours after acquisition, scopolamine 0.5 mg/kg s.c., vs control group
[5] = 30 mg/kg oral, rat, retention test 24 hours after acquisition, scopolamine 0.5 mg/kg s.c., vs control group
[6] = 100 mg/kg oral, rat, retention test 24 hours after acquisition, scopolamine 0.5 mg/kg s.c., vs control group
[7] = 300 mg/kg oral, rat, retention test 24 hours after acquisition, scopolamine 0.5 mg/kg s.c., vs control group
[8] = 30 mg/kg oral, mouse, 96% nitrogen and 4% oxygen, vs control group
[9] = 100 mg/kg oral, mouse, 96% nitrogen and 4% oxygen, vs control group
[10] = 300 mg/kg oral, mouse, 96% nitrogen and 4% oxygen, vs control group

SMILES | change in vivo at 30 mg/kg ([1]; Rattus norvegicus, po, 24 h) [%] | change in vivo at 100 mg/kg ([1]; Rattus norvegicus, po, 24 h) [%] | change in vivo at 300 mg/kg ([1]; Rattus norvegicus, po, 24 h) [%] | ILS at 30 mg/kg ([2]; Mus musculus, po) [%] | ILS at 100 mg/kg ([2]; Mus musculus, po) [%] | ILS at 300 mg/kg ([2]; Mus musculus, po) [%] | change in vivo at 10 mg/kg [1, 4] [%] | change in vivo at 30 mg/kg [1, 5] [%] | change in vivo at 100 mg/kg [1, 6] [%] | change in vivo at 300 mg/kg [1, 7] [%] | ILS at 30 mg/kg [2, 8] [%] | ILS at 100 mg/kg [2, 9] [%] | ILS at 300 mg/kg [2, 10] [%] | LD50 at 72 h ([3]; po) [mg/kg] | LD50 at 72 h ([3]; oral, observed for 3 days) [mg/kg]
COc1ccc(C(=O)N2CCCC2=O)cc1 [Aniracetam, reference compound] | 230 | 288 | 42 | 19 | 26 | 23 |  |  |  |  |  |  |  |  | 
O=C1CCCN1C(=O)Nc1ccccc1 [Compound 1] |  |  |  |  |  |  | 360 | 623 | 367 | 230 | -15 | 15 | 39 | > 5000 | 
COc1ccc(NC(=O)N2CCCC2=O)cc1 [Compound 2, 1-(4-methoxyphenylcarbamoyl)-2-pyrrolidinone] |  |  |  |  |  |  | 346 | 557 | 623 | 507 | 11 | 5 | 27 |  | > 5000
O=C1CCCN1C(=O)Nc1ccc(Cl)cc1 [Compound 3] |  |  |  |  |  |  |  |  |  |  | 11 | 15 | 46 | > 2000 | 
CN(C)c1ccc(NC(=O)N2CCCC2=O)cc1 [Compound 5] |  |  |  |  |  |  | 119 | 598 | 213 | 79 | -4 | 22 | 9 |  | < 5000
COc1ccc(NC(=O)N2CCCC2=O)cc1OC [Compound 6] |  |  |  |  |  |  |  | 138 | 568 | 596 | 0 | -4 | 14 | > 5000 | 
COc1cc(NC(=O)N2CCCC2=O)cc(OC)c1OC [Compound 7] |  |  |  |  |  |  |  | -10 | 209 | 345 | 4 | 11 | 66 | 5000 | 
O=C1CCCN1C(=O)Nc1cccc2c1CCCC2 [Compound 8] |  |  |  |  |  |  | 125 | 531 | 490 | 414 | 30 | 25 | 20 | > 5000 | 
O=C1CCCN1C(=O)Nc1ccncc1 [Compound 9] |  |  |  |  |  |  | -7 | 245 | 157 | 41 | 13 | 12 | 16 |  | < 5000
O=C1CCCN1C(=O)Nc1nccs1 [Compound 10] |  |  |  |  |  |  |  | 166 | 144 | 475 | -4 | -1 | 35 | 5000 | 
O=C1CC(O)CN1C(=O)Nc1ccccc1 (stereo not drawn) [Compound 11, 1-phenylcarbamoyl-4-hydroxy-2-pyrrolidinone] |  |  |  |  |  |  |  | 346 | 198 | 518 | 11 | 62 | 96 |  | 
COc1ccc(NC(=O)N2CC(O)CC2=O)cc1 (stereo not drawn) [Compound 12] |  |  |  |  |  |  |  |  |  |  | 5 | 7 | 63 |  | 
CC1CCN(C(=O)Nc2ccccc2)C1=O (stereo not drawn) [Compound 13] |  |  |  |  |  |  |  |  |  |  | 9 | 87 | 37 | > 2000 | 
COc1ccc(NC(=O)N2CCC(C)C2=O)cc1 (stereo not drawn) [Compound 14, 3-methyl-1-(4-methoxyphenylcarbamoyl)-2-pyrrolidinone] |  |  |  |  |  |  |  | 75 | 6 | 1 | 9 | 26 | 34 |  | > 5000
COc1ccc(NC(=O)N2C(=O)CCC2C)cc1 (stereo not drawn) [Compound 15] |  |  |  |  |  |  |  | 25 | 148 | 672 | -3 | -1 | 11 | > 5000 | 
O=C1CCC(CO)N1C(=O)Nc1ccccc1 (stereo not drawn) [Compound 16, 5-hydroxymethyl-1-phenylcarbamoyl-2-pyrrolidinone] |  |  |  |  |  |  |  | 135 | 103 | 50 | 10 | 36 | 89 |  | 5000
